Literature values in article PMC11286589, “Population pharmacokinetics and exposure–response analyses of SAF-189s in Chinese patients with ALK+/ROS1+ non-small cell lung cancer” (Frontiers in Pharmacology, 2024).

Conditions: cited from earlier work

## Cc1cc(Nc2ncc(Cl)c(Nc3ccccc3S(=O)(=O)C(C)C)n2)c(OC(C)C)cc1C1CCNCC1 [ceritinib]
FIH trial, ref Khozin et al., 2015
  incidence rate of hyperglycemia: 49%

## C[C@@H](Oc1cc(-c2cnn(C3CCNCC3)c2)cnc1N)c1c(Cl)ccc(F)c1Cl [crizotinib]
Current clinical use, ref Camidge et al., 2018, Seto et al., 2019, Wolf et al., 2022
  effect on glucose tolerance in patients: no effects on glucose tolerance
